# In patent US20030181426A1, “Compositions and methods for treating pain using cyclooxygenase-1 inhibitors” (priority 2002, published 2003):
# “Also recorded” adds a separate entry of the source. Like-named read-outs stand apart in the source and are kept apart here.
# Columns and labels:
# COX-1 and COX-2 = settings: as known in the art / Warner, 1999; cited from earlier work
# [1] = system: acetic acid-induced writhing response; settings: mice; COX-1 sensitive pain models; Ochi et al. 2000; cited from earlier work
# tactile allodynia [2] = test: Partial sciatic nerve ligation (PSNL) tactile allodynia, i.t. COX inhibitors; assay type: in vivo, Sprague-Dawley rats
# Source text: A Sprague-Dawley rats (Harlan Industries, Indianapolis, Ind., USA), weighing 200-250 g, were used in this study. All animal surgical procedures were in conformity with the Wake Forest University guidelines on the ethical use of animals and studies were approved by the Animal Care and Use Committee. Animals were implanted with intrathecal catheters according to the method described previously. (Yaksh TL, 1976). Briefly, under halothane anesthesia (2-4% in oxygen/air), animals were placed prone in a stereotaxic frame and a small incision was made at the back of the neck. A small puncture was made in the atlanto-occipital membrane of the cistema magna and a polyethylene catheter (PE-10, 7.5 cm) was inserted so that the caudal tip reached the lumbar enlargement of the spinal cord. The rostral end of the catheter was exteriorized at the top of the head and the wound was closed with sutures. Animals were allowed 4-5 days to recover from the surgery and those displaying signs of motor dysfunction (fore limb or hind limb paralysis) were excluded from the study. Rats were anesthetized with 2-4% halothane in oxygen-air. For partial […] nerve ligation (PSNL), the left sciatic nerve was exposed at the high thigh level and one-third to one-half of the nerve was ligated with silk suture (size 6) as previously described (Shir et al., 1991). Animals were maintained after surgery with ad libitum food and water on a 12-h light/dark cycle. All rats were allowed to recover for 4 weeks after PSNL. By then, tactile allodynia was well established in the ipsilateral hindpaw.
# inflammation = settings: rat animal model; compared to indomethancin; Mansferrer et al. 1994; cited from earlier work
# noxious heat = test: Latency to paw withdrawal from noxious heat; assay type: in vivo, male Sprague-Dawley rats; settings: drug alone; rats with intrathecal catheter
# Procedure: After Animal Care and Use Committee approval, adult male Sprague-Dawley rats (240-330 g; Harlan, Indianapolis, Ind.) were anesthetized with halothane. A catheter was inserted, as previously described, through a small nick in the cisterna magnum membrane into the intrathecal space and advanced 7.5 cm such that its tip lay in the lumbar intrathecal space. […] After catheter implantation, rats were housed individually with a 12 h/12 h light/dark cycle and an unlimited supply of water and food. Experiments occurred at least 6 days after surgery.
# tactile allodynia [3] = test: L5 and L6 spinal nerve ligation (SNL) tactile allodynia, lidocaine and ketorolac; assay type: in vivo, male Sprague-Dawley rats
# tactile allodynia [4] = test: PSNL tactile allodynia, lidocaine; assay type: in vivo, male Sprague-Dawley rats
# [5] = rat, in vivo, ip
# [6] = Hind limb weakness or paralysis after lidocaine injection
# [7] = system: locomotor activity after laparotomy; test: Post-laparotomy locomotor activity model; assay type: in vivo, rats
# nociceptive responses [8] = settings: mice with paw inflammation; Mazario et al. 2001; cited from earlier work
# nociceptive responses [9] = settings: normal and monoarthritic rats; Mazario et al. 2001; cited from earlier work
# [10] = 300 μg intrathecal, 3 days after injection
# [11] = IV 3 mg/kg, 24 hr after laparotomy, 3 mg/kg
smiles,measurement,setting,value
COc1ccc2cc(CC(=O)O)ccc2c1 [6-methoxy-2-napthyl acetic acid],preference in inhibition of COX-1 and COX-2,COX-1 and COX-2,preferentially inhibit COX-2
COc1ccc(-c2nc(C(=O)N3CCN(C)CC3)sc2-c2ccc(OC)cc2)cc1 [FR122047],analgesic effect against acetic acid-induced writhing response,[1],dose-dependent analgesic effect
CS(=O)(=O)Nc1ccc([N+](=O)[O-])cc1OC1CCCCC1 [NS-398],analgesic effect against acetic acid-induced writhing response,[1],had no effect
same,"withdrawal threshold, ipsilateral hindpaw",tactile allodynia [2]; 2 and 4 h after injection,reversed to pre-lesion baseline level
same,duration of reversal of withdrawal threshold,tactile allodynia [2]; 4 weeks after PSNL,24 h
same,"withdrawal threshold, ipsilateral hindpaw",tactile allodynia [2]; 48 h post-injection,returned to pre-injection level
same,anti-inflammatory and ulcerogenic effect,inflammation,anti-inflammatory but not ulcerogenic
Clc1cccc(Cl)c1N=C1NCCN1 [clonidine],antinociception (latency to paw withdrawal from noxious heat),noxious heat,produced antinociception
CC(C(=O)O)c1ccc(-c2ccccc2)c(F)c1 (stereo not shown) [flubiprofen],preference in inhibition of COX-1 and COX-2,COX-1 and COX-2,preferentially inhibit COX-1
CC(C)Cc1ccc(C(C)C(=O)O)cc1 (stereo not shown) [ibuprofen],preference in inhibition of COX-1 and COX-2,COX-1 and COX-2,no or small preferences in inhibition of COX-1 and COX-2
COc1ccc2c(c1)c(CC(=O)O)c(C)n2C(=O)c1ccc(Cl)cc1 [indomethancin],preference in inhibition of COX-1 and COX-2,COX-1 and COX-2,preferentially inhibit COX-1
CCN(CC)CC(=O)Nc1c(C)cccc1C [lidocaine],"tactile allodynia, ipsilateral hind paw","tactile allodynia [3]; 100 μg intrathecal, four weeks following SNL, two hours and 2 days following injection",markedly reversed to the prelesion level
same,withdrawal threshold in the hind paw,"tactile allodynia [3]; 100 μg intrathecal, three days after injection",not significantly lower than the prelesion baseline value
same,"tactile allodynia, ipsilateral hind paw","tactile allodynia [3]; 200 μg intrathecal, four weeks following SNL, two hours and 2 days following injection",markedly reversed to the prelesion level
same,"tactile allodynia, ipsilateral hind paw","tactile allodynia [3]; 200 μg intrathecal, three days after injection",reappeared
same,"tactile allodynia, ipsilateral hind paw","tactile allodynia [3]; 300 μg intrathecal, four weeks following SNL, two hours and 2 days following injection",markedly reversed to the prelesion level
same,"tactile allodynia, ipsilateral hind paw","tactile allodynia [3]; 300 μg intrathecal, three days after injection",reappeared
same,tactile allodynia,"tactile allodynia [4]; 300 μg intraperitoneal, four PSNL rats",no attenuation or reversal of tactile allodynia was observed
same,antiallodynic effect,"tactile allodynia [4]; 300 μg intrathecal, 1 week after injection",disappeared
same,effect on the ipsilateral hind paw,tactile allodynia [4]; [10],antinociceptive effect
same,reversal of tactile allodynia,tactile allodynia [4]; [10],also observed
same,tactile allodynia in both hind paws,"tactile allodynia [4]; 300 μg intrathecal, two weeks after PSNL, two hours following injection",significantly reversed
same,behavior,[5],no abnormal behavior
same,"transient weakness or paralysis of both hind limbs, incidence",[6]; 100 μg intrathecal,completely absent
same,"transient weakness or paralysis of both hind limbs, incidence",[6]; 200 μg intrathecal,one third of rats
same,"transient weakness or paralysis of both hind limbs, incidence",[6]; 300 μg intrathecal,almost all rats
same,duration of transient weakness or paralysis,[6]; intrathecal lidocaine,10 to 20 min
CN1CC[C@]23c4c5ccc(O)c4O[C@H]2[C@@H](O)C=C[C@H]3[C@H]1C5 [morphine],ambulatory activity in sham animals,[7]; 1 mg/kg,stimulates ambulatory activity
same,effect of laparotomy on ambulatory activity,[7]; [11],blocked; also recorded: reversed
same,effect of laparotomy on vertical activity,[7]; [11],not vertical counts; also recorded: not vertical activity
CS(=O)(=O)Nc1ccc([N+](=O)[O-])cc1Oc1ccccc1 [nimesulide],preference in inhibition of COX-1 and COX-2,COX-1 and COX-2,preferentially inhibit COX-2
CN1C(C(=O)Nc2ccccn2)=C(O)c2ccccc2S1(=O)=O [piroxicam],well established tactile allodynia in either hindpaw,tactile allodynia [2]; 4 weeks after PSNL,failed to attenuate
CS(=O)(=O)c1ccc(C2=C(c3ccccc3)C(=O)OC2)cc1 [rofecoxib],reduction of nociceptive responses,nociceptive responses [8],no effect
same,reduction of nociceptive responses,nociceptive responses [9],no effect
